From US9067898B1, “Isothiazole derivatives as GPR120 agonists for the treatment of type II diabetes” (Janssen Pharmaceutica NV, priority 2014, dated 2015)

Key:
Assay type in all cases: cell-based
[1] = biological target: T1, short form of the GPR120 receptor (GPR120S) (Homo sapiens, UniProt Q5NUL3); assay: Human GPR120 DiscoveRx PathHunter Beta-Arrestin assay, Procedure β-arrestin B; conditions: PathHunter CHO-K1 GPR120S β-Arrestin cell line, 5000 cells/well, read-out: hGPR120 β-arrestin B EC50
T1 construct: host or cells: PathHunter CHO-K1 GPR120S β-Arrestin Cell Line
T1 sequence (P32121 whole entry partner, one chain of several): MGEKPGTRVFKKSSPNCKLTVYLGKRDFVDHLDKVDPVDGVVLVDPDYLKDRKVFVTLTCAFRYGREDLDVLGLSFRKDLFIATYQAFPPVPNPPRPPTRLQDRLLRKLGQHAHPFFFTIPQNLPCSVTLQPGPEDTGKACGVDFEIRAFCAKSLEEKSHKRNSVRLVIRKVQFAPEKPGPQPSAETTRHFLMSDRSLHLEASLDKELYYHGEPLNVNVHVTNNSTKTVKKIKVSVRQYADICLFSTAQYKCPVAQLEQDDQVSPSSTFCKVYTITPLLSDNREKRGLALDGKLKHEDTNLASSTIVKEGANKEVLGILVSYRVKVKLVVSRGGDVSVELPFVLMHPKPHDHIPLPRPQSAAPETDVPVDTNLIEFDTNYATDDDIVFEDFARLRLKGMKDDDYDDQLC
Method in brief: (§1)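 PathHunter CHO-K1 β-arrestin cells expressed long-form GPR120 (Procedure A, 3000 cells/well) or short-form GPR120 (Procedure B, 5000 cells/well). Compounds were serially diluted from 25 µM and incubated 90 min at 37 °C in HBSS/20 mM HEPES/0.1% BSA, pH 7.4. Luminescence was read after 60 min detection at RT; EC50 comes from % activity versus positive control, Hill slope fixed at 1.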

Human GPR120 short form = biological target: T2, Human GPR120 short form (Homo sapiens, UniProt Q5NUL3); assay: Human GPR120 calcium flux assay (FLIPR), Procedure Calcium B; conditions: HEK-293 cells expressing human GPR120 short form, 4200 cells/well; read-out: GPR120 Ca2+ Assay B EC50
T2 construct: expressed in transfected cells
T2 sequence (Q5NUL3 1-361): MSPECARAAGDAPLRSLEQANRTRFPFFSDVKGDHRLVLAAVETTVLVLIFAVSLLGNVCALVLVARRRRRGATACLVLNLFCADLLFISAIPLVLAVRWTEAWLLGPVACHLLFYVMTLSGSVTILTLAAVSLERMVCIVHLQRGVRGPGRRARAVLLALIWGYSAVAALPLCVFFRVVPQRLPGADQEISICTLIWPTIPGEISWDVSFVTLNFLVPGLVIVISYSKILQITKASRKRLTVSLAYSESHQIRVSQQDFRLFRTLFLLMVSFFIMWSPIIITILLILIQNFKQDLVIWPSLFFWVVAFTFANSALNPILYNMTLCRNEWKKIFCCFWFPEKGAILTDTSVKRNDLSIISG
Text: This in vitro assay serves to assess test compound agonist activity against the short splice variant (SVS with Accession number NM_001195755.1 confirmed by sequencing data) of the GPR120 receptor. The Human Short splice variant #2 (NM_001195755.1) is missing an in-frame coding exon compared to variant 1 (the Human Long splice variant NM_181745.3), resulting in a shorter isoform (GPR120-S) lacking a 16 aa protein segment compared to isoform GPR120-L. The assay platform utilizes HEK-293 cells stably transfected to express the Human GPR120 short form. These cells are first loaded with the Ca^+2 sensitive dye, Fluo-4 NW. Upon stimulation, intracellular released Ca^+2 can bind to the dye and alter its fluorescence intensity. This increase in fluorescence signal, and thus the flux in intracellular [Ca^2+], is detected and quantitated by fluorescence imaging using a FLIPR reader. The effect of the agonist is measured as a function of concentration and used to calculate an EC50 based upon a response curve.
In this procedure 4200 cells/well were employed.
A Human GPR120 clone (Genbank accession number NM_001195755.1) was placed into the pcDNA3.1 mammalian expression vector carrying the neomycin resistance gene. A stable mammalian cell was generated by placing the above clone into a HEK293 background. Clonal cells responding to long chain fatty acids had expression levels of GPR120 confirmed by RT-qPCR. Human HEK-GPR120 cells were cultured in Dulbecco's Modified Eagle's Medium (DMEM)/F12 medium supplemented with 10% fetal bovine serum (FBS), 1% L-Glutamine and 1% penicillin/streptomycin and 0.5 mg/ml G-418. Cells were split 2 times a week to keep the cells in the log-phase growth.
In preparation for the assay, HEK cells stably transfected with Human GPR120 (2.5K cells per well in 25 uL growth medium) were seeded into 384-well plates and then incubated overnight (37° C., 5% CO2). The next day, the media was changed to 20 μL assay buffer and the cell starved for 1 h at 37° C. The dye loading solution (2× dye) was prepared using 10 mL assay buffer, 100 μL of 250 mM probenecid, 1 bottle of Component A, and 20 μl of dye in DMSO. Twenty μL of the 2× dye loading buffer was then added to each well. The plates were incubated at 37° C. for 30 min, then at room temperature for an additional 15 minutes, before performing the assay on FLIPR. Test compounds were prepared in assay buffer (2 uL of cpd+198 uL assay buffer, final DMSO in assay plate is 0.2%) at the desired concentration, more particularly at 100, 50, 25, 12.5, 6.25, 3.125, 1.562, 0.781, 0.391, 0.195, 0.098, 0.049, 0.024 and 0.012 μM.
The assay was performed on a FLIPR plate reader using the following parameters. Baseline was read for 10 seconds at 1 sec intervals. The program was set to transfer 10 μL of ligand from compound plate to cell plate after baseline reading. Aspiration was executed at: 10 μL/sec speed, 4.6 μL height; Dispensing was executed at: 30 μL/sec speed, 45 μL height. After compound addition, each well was read for 300 sec, with measurements collected at 1 sec intervals.
The kinetic data from the FLIPR was based upon a 5 minute window for data collection. The fluorescence of each sample well was used for individual calculations of a normalized RFU value, which was defined as maximum response minus the minimum response. The normalized fluorescence reading (RFU) was calculated as follows: RFU=Fmax−Fmin The data were fitted to a sigmoidal dose-response curve with a variable Hill slope (<2) using nonlinear regression with GraphPad Prism 5.0 to calculate the EC50 values. The Fitting Equation was: Y=Bottom+(Top−Bottom)/(1+10^((Log EC50−X)*HillSlope)), where X is the log of the concentration and Y is the response.

[2] = biological target: T3, long form of human GPR120 (Homo sapiens, UniProt Q5NUL3); assay: Human GPR120 DiscoveRx PathHunter Beta-Arrestin assay, Procedure β-arrestin A; conditions: PathHunter CHO-K1 GPR120 β-Arrestin cell line, 3000 cells per well, read-out: hGPR120 β-arrestin A EC50
T3 construct: host or cells: PathHunter CHO-K1 GPR120 β-Arrestin Cell Line
T3 sequence (Q5NUL3 1-377 isoform Q5NUL3-1): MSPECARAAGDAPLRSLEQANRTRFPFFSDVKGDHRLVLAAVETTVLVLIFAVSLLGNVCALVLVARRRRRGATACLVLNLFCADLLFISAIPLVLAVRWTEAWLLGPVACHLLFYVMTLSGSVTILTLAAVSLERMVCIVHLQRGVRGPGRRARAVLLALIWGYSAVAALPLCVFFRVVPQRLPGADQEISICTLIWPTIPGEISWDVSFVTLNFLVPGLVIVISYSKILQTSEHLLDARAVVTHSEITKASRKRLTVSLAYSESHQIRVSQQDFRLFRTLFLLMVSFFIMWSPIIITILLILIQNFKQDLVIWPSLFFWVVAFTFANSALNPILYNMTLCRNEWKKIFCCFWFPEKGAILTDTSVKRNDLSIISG
T3 sequence (P32121 whole entry partner): as the sequence (P32121 whole entry partner, one chain of several) above
Method in brief: as §1

Row | Compound | EC50 [1] [nM] | EC50 (Human GPR120 short form) [nM] | EC50 [2] [nM]
1 | COc1ncc(-c2nsc(C(F)(F)F)c2COc2ccc(CCC(=O)O)c(C)c2C)s1 [Cpd 268, 3-(4-{[3-(2-Methoxy-1,3-thiazol-5-yl)-5-(trifluoromethyl)isothiazol-4-yl]methoxy}-2,3-dimethylphenyl)propanoic acid] | 445 | 473 | 
2 | N#Cc1ccc(-c2nsc(C(F)(F)F)c2COc2c(F)cc(CCC(=O)O)cc2F)cc1 [Cpd 261, 3-(4-{[3-(4-Cyanophenyl)-5-(trifluoromethyl)isothiazol-4-yl]methoxy}-3,5-difluorophenyl)propanoic acid] | 332 | 672 | 
3 | O=C(O)CCc1cc(F)c(OCc2c(-c3ccns3)nsc2C(F)(F)F)c(F)c1 [Cpd 272, 3-(3,5-Difluoro-4-{[5-(trifluoromethyl)-3,5′-biisothiazol-4-yl]methoxy}phenyl)propanoic acid] | 750 | 573 | 
4 | CCc1ccc(-c2nsc(C(C)C)c2COc2ccc(CCC(=O)O)c(C)c2C)cc1 [Cpd 64, 3-(4-[[3-(4-ethylphenyl)-5-(propan-2-yl)-1,2-thiazol-4-yl]methoxy]-2,3-dimethylphenyl)propanoic acid] |  | 923 | 
5 | Cc1ccc(-c2snc(Cl)c2COc2ccc(CCC(=O)O)c(C(C)F)c2)cc1 (stereo not drawn) [Cpd 279, 3-[4-{[3-Chloro-5-(4-methylphenyl)isothiazol-4-yl]methoxy}-2-(1-fluoroethyl)phenyl]propanoic acid] |  | 755 | 
6 | Cc1cc(OCc2c(-c3ccc(Cl)cc3)nsc2C(F)(F)F)ccc1CCC(=O)O [Cpd 275, 3-(4-{[3-(4-Chlorophenyl)-5-(trifluoromethyl)isothiazol-4-yl]methoxy}-2-methylphenyl)propanoic acid] |  | 1110 | 
7 | Cc1ccc(-c2snc(Cl)c2COc2ccc(CCC(=O)O)cc2)c(C)c1 [Cpd 255, 3-(4-{[3-Chloro-5-(2,4-dimethylphenyl)isothiazol-4-yl]methoxy}phenyl)propanoic acid] |  | 550 | 
8 | COc1ccccc1-c1snc(Cl)c1COc1ccc(CCC(=O)O)c(C(F)(F)F)c1 [Cpd 260, 3-[4-{[3-Chloro-5-(2-methoxyphenyl)isothiazol-4-yl]methoxy}-2-(trifluoromethyl)phenyl]propanoic acid] |  | 3430 | 

The next compounds have a lower EC50 (Human GPR120 short form) than those just listed; values first:

Row | EC50 [1] [nM] | EC50 (Human GPR120 short form) [nM] | EC50 [2] [nM] | Compound
9 | 721 | 427 |  | CCc1ccc(-c2nsc(C(F)(F)F)c2COc2c(F)cc(CCC(=O)O)cc2F)nc1 [Cpd 273, 3-(4-{[3-(5-Ethylpyridin-2-yl)-5-(trifluoromethyl)isothiazol-4-yl]methoxy}-3,5-difluorophenyl)propanoic acid]
10 | 667 | 379 |  | Cc1c(CCC(=O)O)ccc(OCc2c(-c3ccc(C#N)cc3)nsc2C(F)(F)F)c1C [Cpd 264, 3-(4-{[3-(4-Cyanophenyl)-5-(trifluoromethyl)isothiazol-4-yl]methoxy}-2,3-dimethylphenyl)propanoic acid]
11 |  | 349 |  | Cc1ccccc1-c1snc(Cl)c1COc1ccc(CCC(=O)O)c(C(F)(F)F)c1 [Cpd 253, 3-[4-{[3-Chloro-5-(2-methylphenyl)isothiazol-4-yl]methoxy}-2-(trifluoromethyl)phenyl]propanoic acid]
12 | 982 | 289 |  | CC(Cc1ccc(OCc2c(-c3ncc(Cl)cc3F)nsc2C(F)(F)F)c(F)c1)C(=O)O (stereo not drawn) [Cpd 266, 3-(4-{[3-(5-Chloro-3-fluoropyridin-2-yl)-5-(trifluoromethyl)isothiazol-4-yl]methoxy}-3-fluorophenyl)-2-methylpropanoic acid]
13 | 527 | 248 |  | CC(Cc1cc(F)c(OCc2c(-c3ncc(Cl)cc3F)nsc2C(F)(F)F)c(F)c1)C(=O)O (stereo not drawn) [Cpd 265, 3-(4-{[3-(5-Chloro-3-fluoropyridin-2-yl)-5-(trifluoromethyl)isothiazol-4-yl]methoxy}-3,5-difluorophenyl)-2-methylpropanoic acid]
14 | 325 | 242 |  | COc1ccc(-c2nsc(C(F)(F)F)c2COc2c(F)cc(CCC(=O)O)cc2F)nc1 [Cpd 271, 3-(3,5-Difluoro-4-{[3-(5-methoxypyridin-2-yl)-5-(trifluoromethyl)isothiazol-4-yl]methoxy}phenyl)propanoic acid]
15 |  | 210 |  | COc1cc(OCc2c(Cl)nsc2-c2ccc(C)cc2F)ccc1CCC(=O)O [Cpd 258, 3-(4-{[3-Chloro-5-(2-fluoro-4-methylphenyl)isothiazol-4-yl]methoxy}-2-methoxyphenyl)propanoic acid]
16 | 122 | 200 |  | Cc1cc(OCc2c(-c3ccc(Cl)cc3)nsc2C(F)(F)F)c(F)cc1CCCO [Cpd 63, 3-(4-((3-(4-chlorophenyl)-5-(trifluoromethyl)isothiazol-4-yl)methoxy)-5-fluoro-2-methylphenyl)propan-1-61]
17 | 676 | 194 |  | Cc1c(CCC(=O)O)ccc(OCc2c(-c3cnc(Cl)s3)nsc2C(F)(F)F)c1C [Cpd 269, 3-(4-{[3-(2-Chloro-1,3-thiazol-5-yl)-5-(trifluoromethyl)isothiazol-4-yl]methoxy}-2,3-dimethylphenyl)propanoic acid]
18 | 80 | 139 |  | OCCCc1cc(F)c(OCc2c(-c3ccc(Cl)cc3F)nsc2C(F)(F)F)c(F)c1 [Cpd 262, 3-(4-{[3-(4-Chloro-2-fluorophenyl)-5-(trifluoromethyl)isothiazol-4-yl]methoxy}-3,5-difluorophenyl)propan-1-ol]
19 | 246 | 108 |  | O=C(O)CCc1cc(F)c(OCc2c(-c3ccc(Cl)cn3)nsc2C(F)(F)F)c(F)c1 [Cpd 270, 3-(4-{[3-(5-Chloropyridin-2-yl)-5-(trifluoromethyl)isothiazol-4-yl]methoxy}-3,5-difluorophenyl)propanoic acid]
20 |  | 45 | 191 | Cc1ccc(-c2snc(Cl)c2COc2c(F)cc(CCC(=O)O)cc2F)c(F)c1 [Cpd 252, 3-(4-{[3-Chloro-5-(2-fluoro-4-methylphenyl)isothiazol-4-yl]methoxy}-3,5-difluorophenyl)propanoic acid]
